Reference: patent publication US7927794B2, “Methods for identifying a biosynthetic pathway gene product” (priority 2003, dated 2011)

Assays:
E. coli strain DYM1 = assay: Complementation of isoprenoid-deficient ispC mutant E. coli strain DYM1 on supplemented plates; type: cell-based, Escherichia coli
Excerpt: (§1) Campos (2001) Biochem. J. 353:59-67.
To increase the intracellular concentration of FPP substrate supplied to the amorphadiene synthase, the genes encoding the mevalonate-dependent isoprenoid pathway from S. cerevisiae were assembled into operons and expressed in E. coli. To simplify the task of engineering an eight-gene biosynthetic pathway, we divided the genes into two operons, referred to as the “top” and “bottom”. The top operon, MevT, transforms the ubiquitous precursor acetyl-CoA to (R)-mevalonate in three enzymatic steps (FIG. 13). The bottom operon converts the (R)-mevalonate to IPP, DMAPP and/or FPP depending on the construct (FIG. 13). To test the functionality of the heterologous pathway, an E. coli strain deficient in isoprenoid synthesis (strain DYM1) was transformed with plasmids expressing the three different bottom operon constructs pMevB, pMBI and pMBIS (FIG. 13). Strain DYM1 has a deletion in the ispC gene, which encodes 1-deoxy-D-xylulose-5-phosphate reductoisomerase (Kuzuyama et al. (1999) supra) and therefore, cannot synthesize 2-C-methyl-D-erythritol 4-phosphate, an intermediate in the endogenous isoprenoid biosynthetic pathway (FIG. 3). As expected, all strains grew in the presence of 2-C-methyl-D-erythritol (ME), but only the strains harboring pMBI or pMBIS and not pMevB grew on plates supplemented with 1 mM mevalonate in the absence of ME. […]

engineered E. coli = assay: Growth and metabolite analysis of E. coli expressing S. cerevisiae HMG-CoA synthase (pHMGS); type: cell-based, Escherichia coli; settings: accumulation on expression of HMG-CoA synthase from pHMGS
Excerpt: As a specific example, the accumulation of hydroxymethylglutaryl-CoA (HMG-CoA) is toxic to engineered E. coli.
(§2) FIG. 10. Cultures of E. coli expressing either no heterologous genes (Control), the S. cerevisiae HMG-CoA synthase alone (pHMGS & Empty Vector), or both the S. cerevisiae HMG-CoA synthase and HMG-CoA reductase (pHMGS & pHMGR) on separate expression vectors.
as §2, with “11. Metabolite analysis of cultures” for “10. Cultures”, “and” for “&”, “vectors. E. coli expressing HMG-CoA synthase alone accumulated HMG-CoA.” for “vectors.”

E. coli DH10B = assay: Growth (optical density) of E. coli harboring mevalonate pathway operon plasmids in media supplemented with exogenous mevalonate; set-up: growth of strains lacking the ADS gene: dose or concentration left out as unconfirmed
Method: For the growth studies, the optical density (OD) of cultures expressing the various recombinant pathways was measured with a microtiter plate reader (SpectraMax, Molecular Devices) from 200 μl cultures of LB broth in 96-well plates incubated at 37° C. with continuous shaking. […] The DYM1 strain was propagated on LB medium containing 0.5 mM methylerithrytol (ME) and transformed DYM1 cells were first allowed to recover on plates supplemented with ME before streaking them on test media.
To investigate the cause of this inhibition, measured the growth of E. coli DH10B from strains harboring either the pMKPMK, pMevB, pMBI or pMBIS plasmid in media supplemented with increasing concentrations of exogenous mevalonate was measured. […] To compare the intracellular prenyl pyrophosphate pools in the same strains, resting cells harboring the different mevalonate operon constructs were fed radiolabeled mevalonate and the labeled metabolites were tracked. […] Simultaneous expression of the amorphadiene synthase consumed the excess FPP pool accumulated in the MBIS host, as shown by a decrease in intracellular FPP.
However, in the absence of the IPP isomerase, FPP synthase and terpene synthase to channel the pathway intermediates to the terpene olefin, toxic levels of intracellular pyrophosphates, especially IPP, may accumulate.

E. coli = assay: Growth of E. coli overproducing IPP and DMAPP (MK, PMK, MPD, IPP isomerase from pBBR1MCS-2) with various concentrations of mevalonate; type: cell-based, Escherichia coli; settings: all concentrations of mevalonate studied
Excerpt: as §1
A genomic library from the isoprene-producing bacteria Bacillus subtilis 6051 was expressed from the pTrc99A plasmid in an E. coli strain engineered (genetically modified) to produce elevated levels of IPP and DMAPP. The engineered screening strain expressed nucleic acids encoding mevalonate kinase, phosphomevalonate kinase, mevalonate diphosphate decarboxylase, and IPP/DMAPP isomerase from the pBBR1MCS plasmid, as described in Example 1. Mevalonate was present in the growth medium at a concentration of 10 mM. After several rounds of growth, only plasmids containing genomic fragments with either yhfR or nudF were found in the genomic library.
FIG. 7. […] Triplicate cultures of E. coli expressing the genes encoding for mevalonate kinase, phosphomevalonate kinase, mevalonate diphosphate decarboxylase, and IPP isomerase from the pBBR1MCS-2 plasmid were grown in the presence of various concentrations of mevalonate present in the culture medium. The cells also harbor the pTRC99A expression vector.
FIG. 8. […] Triplicate cultures were set up, which were identical to those depicted in FIG. 7, except that pTRC99A was replaced by pYhfR. The pYhfR plasmid is a pTrc99A backbone that contains the gene yhfR. The yhfR gene was isolated from a plasmid library containing genomic DNA from Bacillus subtilis 6051.
FIG. 9. […]

SMILES: C[C@](O)(CO)[C@H](O)CO [2-C-methyl-D-erythritol]
- growth of DYM1 strains harboring pMevB, pMBI or pMBIS (E. coli strain DYM1; in the presence of 2-C-methyl-D-erythritol (ME)): grew

SMILES: CC(C)(COP(=O)(O)OP(=O)(O)OC[C@H]1O[C@@H](n2cnc3c(N)ncnc32)[C@H](O)[C@@H]1OP(=O)(O)O)[C@@H](O)C(=O)NCCC(=O)NCCSC(=O)C[C@@](C)(O)CC(=O)O [HMG-CoA, hydroxymethylglutaryl-CoA]
- effect of intracellular accumulation on engineered E. coli (engineered E. coli): toxic

SMILES: C=C(C)CCO[P@@](=O)(O)OP(=O)(O)O [IPP, isopentenyl diphosphate]
- effect of intracellular accumulation on cell growth (E. coli DH10B; accumulation in cells with high flux through the mevalonate pathway (pMevB)): toxic and inhibits normal cell growth

SMILES: CC(O)(CCO)CC(=O)O (stereo not shown) [mevalonate]
- growth of DYM1 strains harboring pMBI or pMBIS (E. coli strain DYM1; plates supplemented with 1 mM mevalonate in the absence of ME): grew
- growth of cells harboring pYhfR (yhfR) (E. coli; FIG. 8): No growth inhibition
- growth of cells harboring pC9b (nudF) (E. coli; FIG. 9): No growth inhibition
- growth of cells harboring pMKPMK, pMBI or pMBIS (E. coli DH10B; 5 mM mevalonate in the media): did not affect the growth
- growth of cells harboring pMevB (E. coli DH10B; 5 mM mevalonate in the media): inhibited the growth
- growth of cells expressing MBIS (E. coli DH10B; 10 mM mevalonate): growth inhibition
- growth of cells co-expressing the MBIS operon and the amorphadiene synthase gene (E. coli DH10B; all mevalonate concentrations, IPTG-inducible promoters): normal growth rates
- growth of strains lacking the ADS gene (E. coli DH10B; approximately 2 hours after addition of mevalonate and IPTG): Growth inhibition
- growth of control cultures (E. coli DH10B; greater than 10 mM mevalonate, MBIS cultures where amorphadiene synthase was not expressed): Severe growth inhibition
- growth on expression of the operons (E. coli DH10B; media supplemented with 1 mM mevalonate): only a slight decrease in growth
